# Assay results as given in ChEMBL document CHEMBL4219032, “Triple Reuptake Inhibitors as Potential Therapeutics for Depression and Other Disorders: Design Paradigm and Developmental Challenges” (J Med Chem, 2018).
# What was measured:
# [1] = molecular target: T1, Sodium-dependent dopamine transporter (Homo sapiens, UniProt Q01959)
# Description: Binding affinity to DAT (unknown origin)
# [2] = molecular target: T2, Sodium-dependent serotonin transporter (Homo sapiens, UniProt P31645)
# Description: Binding affinity to SERT (unknown origin)
# [3] = molecular target: T3, Sodium-dependent noradrenaline transporter (Homo sapiens, UniProt P23975)
# Description: Binding affinity to NET (unknown origin)
# [4] = molecular target: Sodium-dependent serotonin transporter (Rattus norvegicus, UniProt P31652); assay: Inhibition of rat brain SERT assessed as reduction of [3H]5-HT re-uptake preincubated for 30 mins followed by [3H]5-HT addition measured after 5 mins by scintillation counting
# [5] = molecular target: Norepinephrine transporter (Rattus norvegicus, UniProt Q9WTR4); assay: Inhibition of rat brain NET assessed as reduction of [3H]-NE re-uptake preincubated for 30 mins followed by [3H]-NE addition measured after 5 mins by scintillation counting
# [6] = molecular target: Sodium-dependent dopamine transporter (Rattus norvegicus, UniProt P23977); assay: Inhibition of rat brain DAT assessed as reduction of [3H]-DA re-uptake preincubated for 30 mins followed by [3H]-DA addition measured after 5 mins by scintillation counting
# [7] = molecular target: T1, Sodium-dependent dopamine transporter; assay: Inhibition of DAT (unknown origin)-mediated uptake
# [8] = molecular target: T2, Sodium-dependent serotonin transporter; assay: Inhibition of SERT (unknown origin)-mediated uptake
# [9] = molecular target: T1, Sodium-dependent dopamine transporter; assay: Binding affinity to human DAT
# [10] = molecular target: T2, Sodium-dependent serotonin transporter; assay: Binding affinity to human SERT
# [11] = molecular target: T3, Sodium-dependent noradrenaline transporter; assay: Binding affinity to human NET
# [12] = Tmax in human plasma at 30 mg administered qd for 3 days followed by 60 mg administration at qd for next 11 days measured on day 14 post last dose by LC-MS/MS analysis; format: ADME, organism-based
# [13] = Half life in human cerebrospinal fluid at 30 mg administered qd for 3 days followed by 60 mg administration at qd for next 11 days measured on day 14 post last dose by LC-MS/MS analysis; format: ADME, tissue-based
# [14] = Ratio of drug level in human brain to plasma at 30 mg administered qd for 3 days followed by 60 mg administration at qd for next 11 days measured on day 14 post last dose by LC-MS/MS analysis; format: ADME; settings: read-out: BPR
# Homo sapiens [15] = assay: In vivo receptor occupancy at DAT in human at 1 mg/day by PET imaging method; format: functional
# Homo sapiens [16] = assay: In vivo receptor occupancy at SERT in human at 1 mg/day by PET imaging method; format: functional
# Homo sapiens [17] = assay: In vivo receptor occupancy at DAT in human at 2 mg/day by PET imaging method; format: functional
# Homo sapiens [18] = assay: In vivo receptor occupancy at SERT in human at 2 mg/day by PET imaging method; format: functional
# [19] = molecular target: T2, Sodium-dependent serotonin transporter; assay: biochemical; format: cell-based, HEK293
# Description: Binding affinity to human SERT expressed in HEK293 cells after 60 mins in presence of [3H]imipramine by liquid scintillation counting
# [20] = molecular target: T3, Sodium-dependent noradrenaline transporter; assay: Binding affinity to human NET expressed in HEK293 cells after 60 mins in presence of [3H]imipramine by liquid scintillation counting; format: cell-based
# [21] = molecular target: T1, Sodium-dependent dopamine transporter; assay: Binding affinity to human DAT expressed in HEK293 cells after 60 mins in presence of […] by liquid scintillation counting; format: cell-based
# Rattus norvegicus [22] = assay: In vivo receptor occupancy at SERT in ip dosed rat brain measured 60 mins post dose; format: functional; settings: 1 h
# Rattus norvegicus [23] = assay: In vivo receptor occupancy at NET in ip dosed rat brain measured 60 mins post dose; format: functional; settings: 1 h
# Rattus norvegicus [24] = assay: In vivo receptor occupancy at DAT in ip dosed rat brain measured 60 mins post dose; format: functional; settings: 1 h
# [25] = molecular target: T2, Sodium-dependent serotonin transporter; assay: Inhibition of human SERT expressed in HEK cells assessed as reduction of [3H]5-HT uptake preincubated for 10 mins followed by [3H]5-HT addition measured after 10 mins by scintillation counting method; format: cell-based
# [26] = molecular target: T1, Sodium-dependent dopamine transporter; assay: Inhibition of human DAT expressed in HEK cells assessed as reduction of [3H]-DA uptake preincubated for 10 mins followed by […] measured after 10 mins by scintillation counting method; format: cell-based
# [27] = molecular target: T3, Sodium-dependent noradrenaline transporter; assay: Inhibition of human NET expressed in HEK cells assessed as reduction of [3H]-NE uptake preincubated for 10 mins followed by […] measured after 10 mins by scintillation counting method; format: cell-based
# Homo sapiens [28] = assay: In vivo receptor occupancy at DAT in human at 8 to 16 mg measured 24 hrs post dose by [11C]-PE2I based PET imaging analysis; format: functional
# Homo sapiens [29] = assay: In vivo receptor occupancy at SERT in human at 8 to 16 mg after 24 hrs post dose by [11C]-DASB based PET imaging analysis; format: functional
# [30] = Tmax in human at 8 to 36 mg by LC-MS/MS analysis; format: ADME, organism-based; settings: in vivo
# [31] = Elimination half life in human at 8 to 36 mg by LC-MS/MS analysis; format: ADME, organism-based; settings: in vivo, read-out: beta t1/2
# [32] = Half life in human at 4 to 8 mg; format: ADME, organism-based; settings: in vivo
# [33] = Half life in human brain; format: ADME, tissue-based
# Homo sapiens [34] = assay: In vivo receptor occupancy at DAT in iv dosed human measured up to 15 mins by PET analysis; format: functional
# T3 sequence (P23975 whole entry): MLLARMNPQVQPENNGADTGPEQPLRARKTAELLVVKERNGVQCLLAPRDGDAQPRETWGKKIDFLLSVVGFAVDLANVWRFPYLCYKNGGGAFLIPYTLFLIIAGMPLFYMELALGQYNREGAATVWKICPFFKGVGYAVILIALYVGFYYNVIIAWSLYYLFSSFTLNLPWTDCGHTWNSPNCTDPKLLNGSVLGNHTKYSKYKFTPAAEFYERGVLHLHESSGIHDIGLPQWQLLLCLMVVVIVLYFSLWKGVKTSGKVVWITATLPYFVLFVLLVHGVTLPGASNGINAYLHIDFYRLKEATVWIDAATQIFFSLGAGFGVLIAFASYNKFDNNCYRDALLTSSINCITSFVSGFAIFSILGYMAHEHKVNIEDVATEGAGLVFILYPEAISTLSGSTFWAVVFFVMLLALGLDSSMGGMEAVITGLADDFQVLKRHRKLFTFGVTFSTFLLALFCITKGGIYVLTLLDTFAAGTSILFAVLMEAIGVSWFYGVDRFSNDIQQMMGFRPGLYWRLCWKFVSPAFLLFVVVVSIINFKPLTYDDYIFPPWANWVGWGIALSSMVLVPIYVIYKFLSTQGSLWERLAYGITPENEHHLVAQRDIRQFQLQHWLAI
# T1 sequence (Q01959 whole entry): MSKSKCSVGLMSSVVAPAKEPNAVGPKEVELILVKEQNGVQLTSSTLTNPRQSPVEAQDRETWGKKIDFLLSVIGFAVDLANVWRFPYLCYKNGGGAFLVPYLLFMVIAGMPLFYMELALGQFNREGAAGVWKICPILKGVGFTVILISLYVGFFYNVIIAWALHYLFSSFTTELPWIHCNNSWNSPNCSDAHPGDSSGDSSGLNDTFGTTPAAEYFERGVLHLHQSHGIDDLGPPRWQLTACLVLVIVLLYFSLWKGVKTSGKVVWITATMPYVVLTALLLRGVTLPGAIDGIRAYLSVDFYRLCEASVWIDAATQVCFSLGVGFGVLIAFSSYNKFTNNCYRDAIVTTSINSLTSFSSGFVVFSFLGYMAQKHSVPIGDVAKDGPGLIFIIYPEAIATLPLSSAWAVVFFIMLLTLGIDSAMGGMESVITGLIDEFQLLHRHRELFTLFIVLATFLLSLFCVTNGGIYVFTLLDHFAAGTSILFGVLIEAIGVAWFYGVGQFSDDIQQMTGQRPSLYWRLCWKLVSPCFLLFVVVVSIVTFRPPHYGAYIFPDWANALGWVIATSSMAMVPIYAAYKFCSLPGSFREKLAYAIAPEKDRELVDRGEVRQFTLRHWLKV
# T2 sequence (P31645 whole entry): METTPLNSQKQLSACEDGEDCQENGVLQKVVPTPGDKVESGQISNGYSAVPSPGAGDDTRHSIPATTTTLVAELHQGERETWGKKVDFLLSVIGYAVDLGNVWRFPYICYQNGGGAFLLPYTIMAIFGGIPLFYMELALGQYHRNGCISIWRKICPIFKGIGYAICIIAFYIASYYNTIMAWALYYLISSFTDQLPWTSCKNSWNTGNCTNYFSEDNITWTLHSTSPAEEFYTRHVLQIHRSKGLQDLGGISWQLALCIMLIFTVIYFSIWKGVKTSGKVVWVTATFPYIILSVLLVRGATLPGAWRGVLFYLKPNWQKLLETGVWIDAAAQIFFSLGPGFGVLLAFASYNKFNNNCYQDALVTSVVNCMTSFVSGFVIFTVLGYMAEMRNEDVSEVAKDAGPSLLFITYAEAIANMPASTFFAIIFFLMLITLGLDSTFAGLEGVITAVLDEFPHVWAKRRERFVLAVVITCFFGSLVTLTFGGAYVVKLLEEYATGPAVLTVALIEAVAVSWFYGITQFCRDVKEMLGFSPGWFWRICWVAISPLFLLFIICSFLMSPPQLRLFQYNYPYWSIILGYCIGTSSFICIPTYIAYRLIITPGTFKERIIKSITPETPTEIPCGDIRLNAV
# Sequence of Norepinephrine transporter (Q9WTR4 whole entry): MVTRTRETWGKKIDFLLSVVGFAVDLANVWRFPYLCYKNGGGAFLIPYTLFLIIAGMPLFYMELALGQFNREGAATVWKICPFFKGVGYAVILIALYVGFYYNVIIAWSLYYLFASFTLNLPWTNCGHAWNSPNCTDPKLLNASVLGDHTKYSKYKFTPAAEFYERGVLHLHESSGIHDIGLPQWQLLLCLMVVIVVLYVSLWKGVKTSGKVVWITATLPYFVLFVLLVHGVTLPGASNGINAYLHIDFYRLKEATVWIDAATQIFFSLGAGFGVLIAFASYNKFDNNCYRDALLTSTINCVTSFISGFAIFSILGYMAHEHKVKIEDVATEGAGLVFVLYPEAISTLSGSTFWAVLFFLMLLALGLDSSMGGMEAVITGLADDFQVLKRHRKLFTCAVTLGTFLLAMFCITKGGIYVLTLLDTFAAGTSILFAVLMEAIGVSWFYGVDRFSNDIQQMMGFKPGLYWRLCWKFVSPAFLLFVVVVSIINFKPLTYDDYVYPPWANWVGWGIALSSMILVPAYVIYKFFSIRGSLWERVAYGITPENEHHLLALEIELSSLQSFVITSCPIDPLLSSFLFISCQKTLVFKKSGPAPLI
# Sequence of Sodium-dependent serotonin transporter (Rattus norvegicus, UniProt P31652) (P31652 whole entry): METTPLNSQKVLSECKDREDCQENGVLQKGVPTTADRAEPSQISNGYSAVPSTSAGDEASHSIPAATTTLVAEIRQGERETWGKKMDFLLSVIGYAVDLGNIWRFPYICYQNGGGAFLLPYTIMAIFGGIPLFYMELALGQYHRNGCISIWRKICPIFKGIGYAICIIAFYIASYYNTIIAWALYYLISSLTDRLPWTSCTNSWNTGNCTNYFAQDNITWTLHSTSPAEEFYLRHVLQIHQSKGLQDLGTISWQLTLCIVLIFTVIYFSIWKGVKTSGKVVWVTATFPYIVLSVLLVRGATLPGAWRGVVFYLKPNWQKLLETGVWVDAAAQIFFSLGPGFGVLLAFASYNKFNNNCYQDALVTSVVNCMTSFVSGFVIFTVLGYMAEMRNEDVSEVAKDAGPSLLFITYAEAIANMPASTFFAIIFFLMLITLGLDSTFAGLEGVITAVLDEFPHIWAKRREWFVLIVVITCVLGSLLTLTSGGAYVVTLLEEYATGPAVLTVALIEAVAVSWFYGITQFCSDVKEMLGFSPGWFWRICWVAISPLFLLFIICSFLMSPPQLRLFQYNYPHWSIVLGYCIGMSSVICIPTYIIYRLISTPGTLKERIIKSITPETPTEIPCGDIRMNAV
# Sequence of Sodium-dependent dopamine transporter (Rattus norvegicus, UniProt P23977) (P23977 whole entry): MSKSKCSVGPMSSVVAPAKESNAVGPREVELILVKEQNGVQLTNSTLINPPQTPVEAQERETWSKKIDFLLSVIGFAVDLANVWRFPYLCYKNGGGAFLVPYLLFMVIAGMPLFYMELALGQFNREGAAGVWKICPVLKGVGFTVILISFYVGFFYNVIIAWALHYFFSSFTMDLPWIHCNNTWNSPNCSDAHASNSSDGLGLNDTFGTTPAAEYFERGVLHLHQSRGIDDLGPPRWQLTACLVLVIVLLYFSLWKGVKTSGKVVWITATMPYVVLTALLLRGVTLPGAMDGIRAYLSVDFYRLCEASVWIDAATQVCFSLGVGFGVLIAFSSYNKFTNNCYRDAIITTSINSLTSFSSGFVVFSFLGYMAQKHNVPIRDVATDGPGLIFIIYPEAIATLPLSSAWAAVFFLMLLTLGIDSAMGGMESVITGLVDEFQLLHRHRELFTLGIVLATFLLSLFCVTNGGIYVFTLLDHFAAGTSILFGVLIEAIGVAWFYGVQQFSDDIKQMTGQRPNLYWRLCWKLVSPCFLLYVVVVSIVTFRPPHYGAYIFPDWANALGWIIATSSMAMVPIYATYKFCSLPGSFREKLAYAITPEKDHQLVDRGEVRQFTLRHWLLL
compound,measurement,setting,value
C#Cc1ccc([C@@H]2CN3CCC[C@@H]3c3ccccc32)cc1,Ki,[1],1.6 nM
same,Ki,[2],0.27 nM
same,Ki,[3],4.1 nM
COC(=O)[C@H]1CN(C)CC[C@@H]1c1ccc(Cl)cc1,IC50,[4],8490 nM
same,IC50,[5],252 nM
same,IC50,[6],233 nM
C[C@]1(O)CC[C@](CN)(c2ccc(Cl)c(Cl)c2)CC1,IC50,[7],518 nM
same,IC50,[8],1190 nM
Clc1ccc(C2CCNCC23COC3)cc1Cl (stereo not drawn),Ki,[9],158 nM
same,Ki,[10],63.1 nM
same,Ki,[11],158 nM
CN1Cc2c(N)cccc2C(c2ccc(Cl)c(Cl)c2)C1 (stereo not drawn),Ki,[1],10.9 nM
same,Ki,[2],10.3 nM
same,Ki,[3],8.8 nM
CN(C)C[C@]1(c2ccc(Cl)c(Cl)c2)CC[C@@](C)(O)CC1,IC50,[7],41 nM
same,IC50,[1],41 nM
same,IC50,[8],34 nM
same,Tmax,[12],4 h
same,half-life,[13],18 h
same,Kp at 14 day,[14],0.22
same,IC50,[2],34 nM
CNC[C@]1(c2ccc(Cl)c(Cl)c2)CC[C@](C)(O)CC1,IC50,[7],71 nM
same,IC50,[8],210 nM
same,Tmax,[12],6 h
same,half-life,[13],32 h
same,Kp at 14 day,[14],0.46
COC[C@H]1[C@@H](c2ccc(Cl)c(Cl)c2)C[C@@H]2CC[C@H]1N2C,IC50,[1],10 nM
same,Occ,Homo sapiens [15],60%
same,Occ,Homo sapiens [16],55%
same,Occ,Homo sapiens [17],80%
same,Occ,Homo sapiens [18],75%
same,IC50,[2],10 nM
same,IC50,[3],2 nM
COC[C@@H]1CN[C@@H]2CC[C@@]1(c1ccc(Cl)c(Cl)c1)C2,Ki,[9],79.4 nM
same,Ki,[10],31.6 nM
same,Ki,[11],6.31 nM
Clc1ccc([C@@H]2CCN[C@@H]3CCOC[C@@H]32)cc1Cl,Ki,[9],39.8 nM
same,Ki,[10],31.6 nM
same,Ki,[11],50.1 nM
COC[C@H]1CN[C@@H]2CC[C@@]1(c1ccc(Cl)c(Cl)c1)C2,Ki,[9],5.01 nM
same,Ki,[10],10 nM
same,Ki,[11],3.16 nM
CNC[C@H](c1ccc2ccccc2c1)[C@H](O)c1ccccc1,Ki,[19],2.1 nM
same,Ki,[20],1.5 nM
same,Ki,[21],61 nM
Clc1ccc([C@]23CNCC2C3)cc1Cl (stereo partly drawn),ED50,Rattus norvegicus [22],0.5 mg/kg
same,ED50,Rattus norvegicus [23],2 mg/kg
same,ED50,Rattus norvegicus [24],49 mg/kg
c1ccc2cc([C@]34CNCC3C4)ccc2c1 (stereo partly drawn),IC50,[25],84 nM
same,IC50,[26],38 nM
same,IC50,[27],6 nM
COC[C@@H]1CN[C@H]2CC[C@]1(c1ccc(Cl)c(Cl)c1)C2,Ki,[9],5.75 nM
same,Ki,[10],2.09 nM
same,Ki,[11],1.41 nM
C#Cc1ccc([C@H]2CN3CCC[C@H]3c3ccccc32)cc1,Ki,[1],74.3 nM
same,Ki,[2],15.8 nM
same,Ki,[3],227 nM
CN(C)C[C@]1(c2ccc3ccccc3c2)CC[C@](C)(O)CC1,IC50,[7],167 nM
same,IC50,[8],7 nM
Clc1ccc([C@@H]2CCNC[C@@]23CCOC3)cc1Cl,Ki,[9],39.8 nM
same,Ki,[10],5.01 nM
same,Ki,[11],79.4 nM
N[C@H]1CC[C@H](c2ccc(Cl)c(Cl)c2)c2ccccc21,IC50,[1],2 nM
same,Occ,Homo sapiens [28],33 - 49%
same,Occ,Homo sapiens [29],2 - 14%
same,Tmax,[30],10 to 12 h
same,half-life,[31],44 to 77 h
same,half-life,[32],47 h
same,IC50,[3],4 nM
CNC[C@@H](c1ccc2ccccc2c1)[C@@H](O)c1ccccc1,Kd,[19],210 nM
same,Kd,[20],42 nM
same,Kd,[21],200 nM
COC[C@H]1CN[C@H]2CC[C@]1(c1ccc(Cl)c(Cl)c1)C2,Ki,[9],1.51 nM
same,Ki,[10],1.26 nM
same,Ki,[11],0.0794 nM
Cc1cc2cc(OC3C[C@H]4CC[C@@H](C3)N4)ccc2oc1=O (stereo partly drawn),IC50,[1],150 nM
same,IC50,[2],0.72 nM
same,IC50,[3],10 nM
C[C@]1(O)CC[C@@](CN)(c2ccc(Cl)c(Cl)c2)CC1,IC50,[7],2600 nM
same,IC50,[8],> 10000 nM
CC1CCCN(C(=O)CSC[C@H]2CN(C)CC[C@@H]2c2ccc(Cl)cc2)C1 (stereo partly drawn),IC50,[4],15 nM
same,IC50,[5],84 nM
same,IC50,[6],120 nM
Clc1ccc(C2CCNCC23CCOCC3)cc1Cl (racemic),Ki,[9],20 nM
same,Ki,[10],0.631 nM
same,Ki,[11],10 nM
CN(C)C[C@H](c1ccc2ccccc2c1)[C@H](O)C1CCCCC1 (racemic),Ki,[19],6 nM
same,Ki,[20],10 nM
same,Ki,[21],53 nM
CNC[C@H](c1ccc2ccccc2c1)[C@H](O)c1ccccc1 (racemic),Ki,[19],12 nM
same,Ki,[20],1.2 nM
same,Ki,[21],43 nM
COC(=O)[C@H](c1ccccc1)[C@H]1CCCCN1 (racemic) [DEXMETHYLPHENIDATE],half-life,[33],1.5 h
same,Occ,Homo sapiens [34],60%
Clc1ccc(C2CCNCC23CCOCC3)cc1Cl (stereo in doubt; 171),Ki,[9],31.6 nM
same,Ki,[10],1.26 nM
same,Ki,[11],63.1 nM
Clc1ccc(C2CCNCC23CCOCC3)cc1Cl (stereo in doubt; 172),Ki,[9],12.6 nM
same,Ki,[10],0.316 nM
same,Ki,[11],3.98 nM
Cc1ccc(C23CNCC2C3)cc1 (stereo not drawn) [BICIFADINE],IC50,[1],910 nM
same,IC50,[2],117 nM
same,IC50,[3],55 nM
CC(NC(C)(C)C)C(=O)c1cccc(Cl)c1 (stereo not drawn) [BUPROPION],Occ,Homo sapiens [34],<30%
COC(=O)[C@H]1[C@@H](OC(=O)c2ccccc2)C[C@@H]2CC[C@H]1N2C [COCAINE],half-life,[33],0.333 h
COC[C@@]12CNCC[C@]1(c1ccc(Cl)c(Cl)c1)C2 [GSK1360707],IC50,[1],8 nM
same,IC50,[2],9.2 nM
same,IC50,[3],8.1 nM
